Laboratory results: patent US5968907A (priority 1997, dated 1999)

How the values were obtained:
cholera toxin = cholera toxin (Vibrio cholerae serotype O1, UniProt P01556); test: biochemical; conditions: read-out: inhibition of binding of cholera toxin to ganglioside GD1b
[1] = target: heat-labile enterotoxin from E. coli (Escherichia coli, UniProt P0CK94); format: binding; conditions: at the concentration employed in the assay
CFA I pili = CFA I pili (Escherichia coli, UniProt P0CK93+P25734); test: biochemical; conditions: read-out: inhibition of CFA I pili binding to glycophorin
Sequence of CFA I pili (P0CK93 24-170): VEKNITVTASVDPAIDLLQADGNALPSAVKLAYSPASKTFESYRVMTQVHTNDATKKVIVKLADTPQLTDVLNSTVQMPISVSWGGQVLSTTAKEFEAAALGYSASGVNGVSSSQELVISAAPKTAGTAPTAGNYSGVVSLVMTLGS
Sequence of CFA I pili (P25734 23-360): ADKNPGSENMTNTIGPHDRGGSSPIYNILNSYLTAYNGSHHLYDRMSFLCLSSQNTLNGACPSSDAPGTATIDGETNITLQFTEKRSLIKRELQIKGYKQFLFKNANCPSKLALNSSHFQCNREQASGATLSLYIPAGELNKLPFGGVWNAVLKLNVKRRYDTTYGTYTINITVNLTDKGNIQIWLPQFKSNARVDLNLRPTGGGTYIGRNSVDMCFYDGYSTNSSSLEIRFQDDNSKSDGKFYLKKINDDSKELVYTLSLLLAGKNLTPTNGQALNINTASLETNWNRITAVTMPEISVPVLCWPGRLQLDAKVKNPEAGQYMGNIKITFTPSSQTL

Sequence of heat-labile enterotoxin from E. coli (P0CK94 whole entry, looked up): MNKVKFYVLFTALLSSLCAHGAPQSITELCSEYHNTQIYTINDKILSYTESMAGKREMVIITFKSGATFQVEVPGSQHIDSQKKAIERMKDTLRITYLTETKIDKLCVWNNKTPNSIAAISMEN
Sequence of cholera toxin (P01556 22-124 limits assumed): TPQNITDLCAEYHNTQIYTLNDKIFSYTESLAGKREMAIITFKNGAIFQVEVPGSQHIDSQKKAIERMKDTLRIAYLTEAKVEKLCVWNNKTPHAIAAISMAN

Structure (SMILES)	inhibition at 1000 µg/mL (cholera toxin) [%]	inhibition of binding of heat-labile enterotoxin to ganglioside GD1b [1]	inhibition at 1000 µg/mL (CFA I pili) [%]
OC[C@H]1O[C@@H](SC2CCCC2O)[C@H](O)[C@@H](O)[C@H]1O (stereo partly drawn) [Example A1, 2-Hydroxycyclopent-1-yl 1-Thio-β-D-galactopyranoside]	< 20	at least 20%	
OC[C@H]1O[C@@H](SCC2C3CCC(C3)C2O)[C@H](O)[C@@H](O)[C@H]1O (stereo partly drawn) [Example A4, (3-Hydroxynorborn-2-yl)methyl 1-Thio-β-D-galactopyranoside]	< 20	at least 20%	
OC[C@H]1O[C@@H](SC2CCC(O)C2)[C@H](O)[C@@H](O)[C@H]1O (stereo partly drawn) [Example A7, 3-Hydroxycyclopent-1-yl 1-Thio-β-D-galactopyranoside]	< 20	< 20%	
OC[C@H]1O[C@@H](SC2CCCC(O)C2)[C@H](O)[C@@H](O)[C@H]1O (stereo partly drawn) [Example A10, 3-Hydroxycyclohex-1-yl 1-Thio-β-D-galactopyranoside]	< 20	at least 20%	
NC1CCCC1S[C@@H]1O[C@H](CO)[C@H](O)[C@H](O)[C@H]1O (stereo partly drawn) [Example B1, 2-Aminocyclopent-1-yl 1-Thio-β-D-galactopyranoside]	< 20	at least 20%	
NC1C2CCC(C2)C1CS[C@@H]1O[C@H](CO)[C@H](O)[C@H](O)[C@H]1O (stereo partly drawn) [Example B4, (3-Aminonorborn-2-yl)methyl 1-Thio-β-D-galactopyranoside]	< 20	at least 20%	
NC1CCCCC(S[C@@H]2O[C@H](CO)[C@H](O)[C@H](O)[C@H]2O)C1 (stereo partly drawn) [Example B5, 3-Aminocyclohept-1-yl 1-Thio-β-D-galactopyranoside]			13 to 71
NC1CCC(S[C@@H]2O[C@H](CO)[C@H](O)[C@H](O)[C@H]2O)C1 (stereo partly drawn) [Example B7, 3-Aminocyclopent-1-yl 1-Thio-β-D-galactopyranoside]	≥ 20	at least 20%	
NC1CCCC(S[C@@H]2O[C@H](CO)[C@H](O)[C@H](O)[C@H]2O)C1 (stereo partly drawn) [Example B10, 3-Aminocyclohex-1-yl 1-Thio-β-D-galactopyranoside]	< 20	at least 20%	
CC(=O)NC1CCCCC(S[C@@H]2O[C@H](CO)[C@H](O)[C@H](O)[C@H]2O)C1 (stereo partly drawn) [Example C5, 3-Acetamidocyclohept-1-yl 1-Thio-β-D-galactopyranoside]	≥ 20	at least 20%	
CC(=O)NC1CCC(S[C@@H]2O[C@H](CO)[C@H](O)[C@H](O)[C@H]2O)C1 (stereo partly drawn) [Example C7, 3-Acetamidocyclopent-1-yl 1-Thio-β-D-galactopyranoside]	≥ 20	at least 20%	
CC(=O)NC1CCCC(S[C@@H]2O[C@H](CO)[C@H](O)[C@H](O)[C@H]2O)C1 (stereo partly drawn) [Example C10, 3-Acetamidocyclohexyl 1-Thio-β-D-galactopyranoside]	≥ 20	< 20%	
CC(=O)NC1CC(S[C@@H]2O[C@H](CO)[C@H](O)[C@H](O)[C@H]2O)CCC1(C)C (stereo partly drawn) [Example C11, 3-Acetamido-4,4-dimethylcyclohexyl 1-Thio-β-D-galactopyranoside]		at least 20%	
O=C(O)c1ccccc1C(=O)NC1CCCCC1S[C@@H]1O[C@H](CO)[C@H](O)[C@H](O)[C@H]1O (stereo partly drawn) [Example D2, 2-(2-Carboxybenzamido)cyclohex-1-yl 1-Thio-β-D-galactopyranoside]		< 20%	
O=C(O)c1ccccc1C(=O)NC1C2CCC(C2)C1CS[C@@H]1O[C@H](CO)[C@H](O)[C@H](O)[C@H]1O (stereo partly drawn) [Example D4, [3-(Carboxybenzamido)norborn-2-yl]methyl 1-Thio-β-D-galactopyranoside]		at least 20%	
O=C(O)c1ccccc1C(=O)NC1CCCCC(S[C@@H]2O[C@H](CO)[C@H](O)[C@H](O)[C@H]2O)C1 (stereo partly shown) [Example D5, 3-(2-Carboxybenzamido)cyclohept-1-yl 1-Thio-βD-galactopyranoside]	≥ 20	at least 20%	
O=C(O)CNC1CCCC1S[C@@H]1O[C@H](CO)[C@H](O)[C@H](O)[C@H]1O (stereo partly drawn) [Example E1, Nα-[2-(1-Thio-β-D-galactopyranosyl)cyclopent-1-yl]glycine]	≥ 20	at least 20%	
O=C(O)CNC1CCCCC1S[C@@H]1O[C@H](CO)[C@H](O)[C@H](O)[C@H]1O (stereo partly drawn) [Example E2, Nα-[2-(1-Thio-β-D-galactopyranosyl)cyclohex-1-yl]gIycine]		at least 20%	

Structure (SMILES)	inhibition at 1000 µg/mL (cholera toxin) [%]	inhibition of binding of heat-labile enterotoxin to ganglioside GD1b [1]	inhibition at 1000 µg/mL (CFA I pili) [%]
O=C(O)CNC1C2CCC(C2)C1CS[C@@H]1O[C@H](CO)[C@H](O)[C@H](O)[C@H]1O (stereo partly drawn) [Example E4, Nα-[3-((1-Thio-β-D-galactopyranosyl)methyl)norborn-2-yl]glycine]		at least 20%	
O=C(O)CNC1CCCC(S[C@@H]2O[C@H](CO)[C@H](O)[C@H](O)[C@H]2O)C1 (stereo partly drawn) [Example E10, Nα-[3-(1-Thio-β-D-galactopyranosyl)cyclohex-1-yl]glycine]		at least 20%	
CC1(C)CCC(S[C@@H]2O[C@H](CO)[C@H](O)[C@H](O)[C@H]2O)CC1NCC(=O)O (stereo partly drawn) [Example E11, Nα-[5-(1-Thio-β-D-galactopyranosyl)-2 ,2-dimethylcyclohex-1-yl]glycine]		at least 20%	
O=C(O)CCNC1CCCC1S[C@@H]1O[C@H](CO)[C@H](O)[C@H](O)[C@H]1O (stereo partly drawn) [Example F1, Nβ-[2-(1-Thio-β-D-galactopyranosyl)cyclopent-1-yl]-β-alanin]	< 20	at least 20%	
O=C(O)CCNC1CCCCC1S[C@@H]1O[C@H](CO)[C@H](O)[C@H](O)[C@H]1O (stereo partly drawn) [Example F2, Nβ-[2-(1-Thio-β-D-galactopyranosyl)cyclohex-1-yl]-β-alanine]		at least 20%	
O=C(O)CCNC1CCCCC(S[C@@H]2O[C@H](CO)[C@H](O)[C@H](O)[C@H]2O)C1 (stereo partly drawn) [Example F5, Nβ-[3-(1-Thio-β-D-galactopyranosyl)cyclohept-1-yl]-β-alanine]	< 20	at least 20%	
O=C(O)CCNC1CCC(S[C@@H]2O[C@H](CO)[C@H](O)[C@H](O)[C@H]2O)C1 (stereo partly drawn) [Example F7, N-β-[3-(1-Thio-β-D-galactopyranosyl)cyclopent-1-yI]-β-alanine]	< 20	at least 20%	
O=C(O)CCNC1CCCC(S[C@@H]2O[C@H](CO)[C@H](O)[C@H](O)[C@H]2O)C1 (stereo partly drawn) [Example F10, Nβ-[3-(1-Thio-β-D-galactopyranosyl)cyclohex-1-yl]-β-alanine]	< 20	at least 20%	
CC1(C)CCC(S[C@@H]2O[C@H](CO)[C@H](O)[C@H](O)[C@H]2O)CC1NCCC(=O)O (stereo partly drawn) [Example F11, N-β-[5-(1-Thio-α-D-galactopyranosyl)-2,2-dimethylcyclohex-1-yl]-β-alanine]		at least 20%	
CC(C)C[C@H](NC1CCCCC1S[C@@H]1O[C@H](CO)[C@H](O)[C@H](O)[C@H]1O)C(=O)O (stereo partly drawn) [Example G2, Nα-[2-(1-Thio-β-D-galactopyranosyl)cyclohex-1-yl]-L-leucine]	≥ 20	< 20%	
CC(C)C[C@H](NC1CCCCC(S[C@@H]2O[C@H](CO)[C@H](O)[C@H](O)[C@H]2O)C1)C(=O)O (stereo partly drawn) [Example G5, Nα-[1-(1-Thio-β-D-galactopyranosyl)cyclohept-3-yl]-L,Ieucine]	≥ 20	at least 20%	
O=C(O)[C@H](Cc1c[nH]cn1)NC1CCCCC1S[C@@H]1O[C@H](CO)[C@H](O)[C@H](O)[C@H]1O (stereo partly drawn) [Example H2, Nα-[2-(1-Thio-β-D-galactopyranosyl)cyclohex-1-yl]-L-histidine]	< 20		13 to 71
CC(CC(S[C@@H]1O[C@H](CO)[C@H](O)[C@H](O)[C@H]1O)c1ccccc1)N[C@@H](Cc1c[nH]cn1)C(=O)O (stereo partly drawn) [Example H3, Nα-[4-Phenyl-4-(1-thio-β-D-galactopyranosyl)but-2-yl]-L-histidine]	≥ 20		13 to 71
CC1(C)CC(N[C@@H](Cc2c[nH]cn2)C(=O)O)CC1S[C@@H]1O[C@H](CO)[C@H](O)[C@H](O)[C@H]1O (stereo partly drawn) [Example H6, Nα-[4,4-Dimethyl-3-(1-thio-β-D-galactopyranosyl)-cyclopent-1-yl]-L-histidine]			13 to 71
O=C(O)[C@H](Cc1c[nH]cn1)NC1CCC(S[C@@H]2O[C@H](CO)[C@H](O)[C@H](O)[C@H]2O)C1 (stereo partly drawn) [Example H7, Nα-[3-(1-Thio-β-D-galactopyranosyl)cyclopent-1-yl]-L-histidine]			13 to 71
O=C(O)[C@H](Cc1c[nH]c2ccccc12)NC1CCCCC(S[C@@H]2O[C@H](CO)[C@H](O)[C@H](O)[C@H]2O)C1 (stereo partly drawn) [Example I5, Nα-[3-(1-Thio-β-D-galactopyranosyl)cyclohept-1-yl]-L-tryptophan]	≥ 20	at least 20%	
N=C(N)NCCC[C@H](NC1CCC(S[C@@H]2O[C@H](CO)[C@H](O)[C@H](O)[C@H]2O)C1)C(=O)O (stereo partly drawn) [Example J7, Nα-[3-(1-Thio-β-D-galactopyranosyl)cyclopent-1-yl]-L-arginine]	< 20	at least 20%	
